According to ChEMBL document CHEMBL1201862, “PubChem BioAssay data set” (2004):
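In this assay, cells in 96-well plates receive the compound at five concentrations for 48 hours. Endpoints are linearly interpolated between the surrounding concentrations. At the GI50, growth is halved.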 The source made the active and inactive calls. Rule as the data show it: active = GI50 up to about 1.1 µM and inactive = higher.

Legend:
Test in all cases: NCI anticancer screen, dose series, 48 h
[1] = system: A498
[2] = system: BT-549
[3] = system: CAKI-1
[4] = system: COLO 205
[5] = system: HCT-15
[6] = system: HL-60
[7] = system: HT-29
[8] = system: Hs-578T
[9] = system: MDA-MB-435
[10] = system: NCI-H522
[11] = system: OVCAR-4
[12] = system: PC-3
[13] = system: RXF 393
[14] = system: SF-268
[15] = system: SF-539
[16] = system: SK-MEL-2
[17] = system: T47D
[18] = system: U-251
[19] = system: UACC-257
[20] = system: UACC-62

Measured: GI50

Cc1c2c(c(C)c3c[n+](C)ccc13)Oc1ccccc1O2
> 62.2 µM: [5]
inactive: [1] 28.6 µM | [2] 2.67 µM | [3] > 67.5 µM | [4] 6.34 µM | [6] 13.3 µM | [7] 20 µM | [8] 3.13 µM | [9] 15.1 µM | [10] 4.42 µM | [11] 9.42 µM | [12] 16.3 µM | [13] 34.7 µM | [14] 1.64 µM | [15] 3.78 µM | [16] 12.2 µM | [17] 2.57 µM | [18] 1.21 µM | [19] 6.87 µM | [20] 12.7 µM

COC(=O)C1(Cc2ccccc2C)Cc2ccc(C)cc2C1=O (stereo not given)
27.4 µM: [5]
inactive: [1] 31.3 µM | [2] 49.1 µM | [3] 36.1 µM | [4] 19.5 µM | [6] 15.6 µM | [7] 16.7 µM | [8] 33.2 µM | [9] 32.3 µM | [10] 17.3 µM | [11] 36.6 µM | [12] 25.7 µM | [13] 28.6 µM | [14] 69.7 µM | [15] 37.5 µM | [16] 21.2 µM | [17] 22.8 µM | [18] 39 µM | [19] 29.4 µM | [20] 40.6 µM

C[C@]12CCC(=O)[C@@H](CCC3=CC(=O)C=CC3=O)[C@@H]1CCC2=O
17.4 µM: [5]
inactive: [1] 17.5 µM | [2] 11 µM | [3] 12.7 µM | [4] 13 µM | [6] 2.7 µM | [7] 25.6 µM | [8] 3.97 µM | [9] 22 µM | [10] 2.19 µM | [11] 17.2 µM | [12] 12.9 µM | [13] 1.9 µM | [14] 14.3 µM | [15] 11.4 µM | [16] 11.7 µM | [17] 9.23 µM | [18] 20.7 µM | [19] 17.8 µM | [20] 16.6 µM

Cc1c2ncccc2c(C)c2c1[nH]c1ccc(O)cc12
inactive: [1] 13.3 µM | [2] 13.7 µM | [3] 3.32 µM | [4] 10.4 µM | [6] 2.32 µM | [7] 6.87 µM | [9] 7.64 µM | [10] 6.22 µM | [11] 4.15 µM | [12] 2.76 µM | [13] 2.9 µM | [14] 4.94 µM | [15] 6.55 µM | [16] 18.5 µM | [17] 8.59 µM | [18] 2.4 µM | [19] 11.5 µM | [20] 10.2 µM
3.39 µM: [5]
active: [8] 1.08 µM

C=CCN1C(=O)/C(=C/c2cccs2)N=C1SC/C=C/C
33.5 µM: [5]
inactive: [1] 27 µM | [2] 39.1 µM | [3] 46.9 µM | [4] 31.6 µM | [6] 21.3 µM | [7] 34.6 µM | [8] 32.7 µM | [9] 34.5 µM | [10] 26.9 µM | [11] 23.3 µM | [12] 35.6 µM | [13] 22.8 µM | [14] 46.5 µM | [15] 58.3 µM | [16] 27.2 µM | [17] 21 µM | [18] 37.7 µM | [19] 40.3 µM | [20] 32.4 µM

C=C1C(=O)O[C@@H]2C[C@@H](C)[C@@H]3[C@@H](OC4OC(COC(C)=O)C(O)C(O)C4O)CC(=O)[C@@]3(C)C[C@H]12 (stereo not given in full)
0.218 µM: [5]
active: [3] 0.508 µM | [4] 0.703 µM | [6] 0.211 µM | [10] 0.127 µM
inactive: [1] 15.5 µM | [2] 1.34 µM | [7] 1.22 µM | [8] 25.2 µM | [9] 2.26 µM | [11] 3.31 µM | [12] 10.3 µM | [13] 1.85 µM | [14] 9.77 µM | [15] 2.42 µM | [16] 7.5 µM | [17] 2.84 µM | [18] 7.19 µM | [19] 1.68 µM | [20] 1.55 µM
